Experimental data taken from article PMC6600574 (Molecules, 2019).
Entries after “also recorded” stand apart in the source; their conditions may differ.

Columns and labels:
[1] = molecular target: T1, CYP1B1 (Homo sapiens, UniProt Q16678); assay: Inhibition of recombinant CYP oxidation (fluorescent coumarin substrate); assay type: in vitro ADME; conditions: read-out: Recombinant CYP IC50 (µM) with 95% confidence intervals
T1 construct: purchased BD Biosciences Discovery Labware (Bedford, MA, USA)
T1 sequence (Q16678 1-543): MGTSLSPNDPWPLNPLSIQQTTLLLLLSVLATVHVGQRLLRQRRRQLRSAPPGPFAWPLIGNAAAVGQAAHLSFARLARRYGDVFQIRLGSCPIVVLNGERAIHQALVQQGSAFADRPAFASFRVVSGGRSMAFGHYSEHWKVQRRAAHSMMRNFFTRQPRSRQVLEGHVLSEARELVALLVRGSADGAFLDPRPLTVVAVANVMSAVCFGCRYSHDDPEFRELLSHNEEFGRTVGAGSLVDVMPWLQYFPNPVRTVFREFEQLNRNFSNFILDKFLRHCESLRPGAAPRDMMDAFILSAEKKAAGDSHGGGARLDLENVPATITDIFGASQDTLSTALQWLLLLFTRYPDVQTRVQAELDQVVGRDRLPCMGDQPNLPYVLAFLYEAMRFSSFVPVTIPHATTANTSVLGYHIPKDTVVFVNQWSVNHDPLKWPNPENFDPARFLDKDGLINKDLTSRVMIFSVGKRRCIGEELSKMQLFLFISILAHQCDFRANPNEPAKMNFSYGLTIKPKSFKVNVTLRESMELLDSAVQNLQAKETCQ
Experimental: (§1) Incubations were carried out in a total volume of 100 µl of 100 mM Tris-HCl buffer (pH 7.4) in all black, flat-bottom Costar 96-well plates (Corning Incorporated, Corning, NY, USA). […] The samples were then preincubated at 37 °C for 10 min. The reactions were initiated by the addition of NADPH, and 0–10 µM 7-hydroxycoumarin was used as the standard. The fluorescent signal was measured with a Victor^2 1420 multilabel plate counter (PerkinElmer Lifesciences Wallac, Turku, Finland) with excitation and emission wavelengths of 405 and 460 nm, respectively. Fluorescence was monitored every 2 min for 40 min from where the concentration was calculated at the various time points. From these, oxidation rates (µM/min) and the relative remaining activity of the sample at different concentrations were calculated. The data were fit to sigmoidal dose-response curves with nonlinear regression, and IC50 values (the concentration at which the sample reduced the metabolism of the CYP substrate by 50%) were determined. […] This was analyzed using nonlinear equations in Graph Pad Prism, which produced IC50 values and its 95% confidence interval as the results.

[2] = molecular target: T2, CYP2D6 (Homo sapiens, UniProt P10635); assay: as above; assay type: in vitro ADME; conditions: read-out: Recombinant CYP IC50 (µM) with 95% confidence intervals
T2 construct: purchased BD Biosciences Discovery Labware (Bedford, MA, USA)
T2 sequence (P10635 whole entry): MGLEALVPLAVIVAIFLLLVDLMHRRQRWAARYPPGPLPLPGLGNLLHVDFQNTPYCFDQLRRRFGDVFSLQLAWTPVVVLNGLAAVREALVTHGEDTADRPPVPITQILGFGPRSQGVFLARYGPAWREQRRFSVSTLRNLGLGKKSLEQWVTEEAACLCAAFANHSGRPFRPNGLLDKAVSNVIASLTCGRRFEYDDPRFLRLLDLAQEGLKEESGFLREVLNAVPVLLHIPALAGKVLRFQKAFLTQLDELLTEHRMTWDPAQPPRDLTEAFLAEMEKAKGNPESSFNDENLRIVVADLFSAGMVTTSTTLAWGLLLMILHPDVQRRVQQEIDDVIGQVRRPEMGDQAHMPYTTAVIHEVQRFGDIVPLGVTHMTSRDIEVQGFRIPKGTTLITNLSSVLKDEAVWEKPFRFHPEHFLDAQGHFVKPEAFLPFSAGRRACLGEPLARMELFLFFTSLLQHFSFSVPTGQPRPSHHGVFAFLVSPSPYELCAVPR
Experimental: as §1

[3] = molecular target: T3, CYP3A4 (Homo sapiens, UniProt P08684); assay: as above; assay type: in vitro ADME; conditions: read-out: Recombinant CYP IC50 (µM) with 95% confidence intervals
T3 construct: purchased BD Biosciences Discovery Labware (Bedford, MA, USA)
T3 sequence (P08684 whole entry): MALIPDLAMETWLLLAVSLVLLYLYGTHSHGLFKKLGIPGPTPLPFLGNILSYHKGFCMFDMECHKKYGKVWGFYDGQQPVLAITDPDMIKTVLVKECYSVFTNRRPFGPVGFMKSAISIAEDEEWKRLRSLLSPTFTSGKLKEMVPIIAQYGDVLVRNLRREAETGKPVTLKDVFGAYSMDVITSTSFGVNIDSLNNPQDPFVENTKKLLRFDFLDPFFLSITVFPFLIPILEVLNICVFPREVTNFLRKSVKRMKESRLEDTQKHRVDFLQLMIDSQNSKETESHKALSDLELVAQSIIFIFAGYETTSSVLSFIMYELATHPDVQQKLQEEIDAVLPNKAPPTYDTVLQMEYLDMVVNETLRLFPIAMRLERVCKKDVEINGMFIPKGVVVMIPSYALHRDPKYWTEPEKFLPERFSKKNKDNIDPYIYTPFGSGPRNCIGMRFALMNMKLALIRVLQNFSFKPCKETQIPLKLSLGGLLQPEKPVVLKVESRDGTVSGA
Experimental: as §1

[4] = molecular target: T4, recombinant CYP 2C19 (Homo sapiens, UniProt P33261); assay: as above; assay type: in vitro ADME; conditions: CYP 2C19, substrate TFD032, 5 nM recombinant CYP, verbascoside 0.4-50 µM
T4 construct: purchased BD Biosciences Discovery Labware (Bedford, MA, USA)
T4 sequence (P33261 whole entry): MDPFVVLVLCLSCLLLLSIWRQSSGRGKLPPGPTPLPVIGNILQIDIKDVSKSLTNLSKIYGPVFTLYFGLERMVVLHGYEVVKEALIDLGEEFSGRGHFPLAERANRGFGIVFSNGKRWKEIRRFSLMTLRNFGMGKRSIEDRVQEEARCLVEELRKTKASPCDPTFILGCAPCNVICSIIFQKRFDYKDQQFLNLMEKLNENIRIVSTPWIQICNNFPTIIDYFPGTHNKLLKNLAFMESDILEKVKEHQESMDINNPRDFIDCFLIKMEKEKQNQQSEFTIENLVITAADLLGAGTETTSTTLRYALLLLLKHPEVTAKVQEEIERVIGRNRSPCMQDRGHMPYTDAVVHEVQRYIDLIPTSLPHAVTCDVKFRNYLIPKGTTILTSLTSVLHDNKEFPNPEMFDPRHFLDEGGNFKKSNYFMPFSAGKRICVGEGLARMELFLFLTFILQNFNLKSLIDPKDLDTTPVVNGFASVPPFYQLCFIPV
Experimental: as §1

[5] = molecular target: T5, CYP 1A2 (liver microsomes) (Homo sapiens, UniProt P05177); assay: Inhibition of hepatic microsome-catalyzed CYP oxidation; assay type: in vitro ADME; conditions: CYP 1A2, substrate OCA349, liver microsomes; read-out: Microsomal IC50 (µM) with 95% Confidence Intervals
T5 construct: from tissue; host or cells: human liver microsomes
T5 sequence (P05177 whole entry): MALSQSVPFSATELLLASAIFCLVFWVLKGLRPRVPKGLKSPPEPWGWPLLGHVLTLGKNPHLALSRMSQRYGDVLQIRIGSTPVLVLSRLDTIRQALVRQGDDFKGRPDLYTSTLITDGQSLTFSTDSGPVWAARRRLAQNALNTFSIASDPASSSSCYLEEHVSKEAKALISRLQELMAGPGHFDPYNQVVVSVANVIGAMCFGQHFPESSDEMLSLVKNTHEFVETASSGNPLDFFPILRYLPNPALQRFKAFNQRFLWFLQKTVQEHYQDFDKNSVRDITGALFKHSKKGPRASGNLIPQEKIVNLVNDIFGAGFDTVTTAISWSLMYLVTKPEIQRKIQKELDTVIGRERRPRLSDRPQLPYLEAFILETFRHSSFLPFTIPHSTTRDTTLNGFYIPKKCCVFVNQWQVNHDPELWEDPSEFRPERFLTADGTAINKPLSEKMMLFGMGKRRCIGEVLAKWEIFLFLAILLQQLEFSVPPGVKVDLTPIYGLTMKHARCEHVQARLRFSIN
Experimental: as §1

[6] = molecular target: T6, CYP 2C19 (liver microsomes) (Homo sapiens, UniProt P33261); assay: as above; assay type: in vitro ADME; conditions: CYP 2C19, substrate TFD032, liver microsomes
T6 construct: from tissue; host or cells: human liver microsomes
T6 sequence (P33261 whole entry): as the sequence (P33261 whole entry) above
Experimental: as §1

[7] = molecular target: T7, CYP 2D6 (liver microsomes) (Homo sapiens, UniProt P10635); assay: as above; assay type: in vitro ADME; conditions: CYP 2D6, substrate TFD023, liver microsomes; read-out: Microsomal IC50 (µM) with 95% Confidence Intervals
T7 construct: from tissue; host or cells: human liver microsomes
T7 sequence (P10635 whole entry): as the sequence (P10635 whole entry) above
Experimental: as §1

[8] = DPPH radical scavenging assay; assay type: biochemical; conditions: DPPH in ethanol, 30 min
Experimental: Ascorbic acid was serially diluted to a concentration range of 0.78–100 µg/mL. Ethanol (10%) was used as a blank. Ninety microliters of a […] DPPH (2,2-diphenyl-1-picrylhydrazyl) in ethanol were added to each well. The plates were incubated for 30 min and covered in a layer of foil. Color controls (negative controls) were prepared in the exact same manner as above, but distilled water was added to each well instead of DPPH. The absorbances were measured at a wavelength of 515 nm using a BIO-TEK Power-Wave XS multiplate reader (BIO-TEK Instruments, Winooski, VT, USA). From the absorbances an IC50 value was determined.

[9] = Nitric oxide scavenging assay (nitroprusside, Griess reagent); assay type: biochemical; conditions: 10 mM nitroprusside, 90 min, read-out: NO IC50
Experimental: Ethanol (10%) was used as a blank. Nitroprusside (50 μL) at a concentration of 10 mM was added to all the wells. The plates were incubated for 90 min at room temperature. After incubation, Griess reagent (100 μL) was added to all the wells, except for the color controls (negative controls) where instead distilled water was added. The absorbances were read at a wavelength of 546 nm using a BIO-TEK Power-Wave XS multiplate reader. From the absorbances an IC50 value was determined.

[10] = parameters: method as in Koo et al. (2006) [16]; conditions: ref Koo et al. (2006) [16]; read-out: DPPH radical scavenging EC50; cited from earlier work

Question: Which IC50 at 40 min ([1]; human, recombinant CYP1B1, pH 7.4, probe TFD008 1 (3-(4-phenylacetate)-6-chlorocoumarin), 10 µM) does the source give for `C[C@@H]1O[C@@H](O[C@@H]2[C@@H](O)[C@H](OCCc3ccc(O)c(O)c3)O[C@H](CO)[C@H]2OC(=O)/C=C/c2ccc(O)c(O)c2)[C@H](O)[C@H](O)[C@H]1O` [Verbascoside] here?
Answer: > 50 µM

Question: What about the IC50 [1] of the same molecule?
Answer: 86 µM

Question: What about the IC50 at 40 min ([2]; human, recombinant CYP2D6, pH 7.4, probe TFD023 (3-(4-phenyl)-7-methoxycoumarin), 10 µM) of the same molecule?
Answer: > 50 µM

Question: What about the IC50 [2] of the same molecule?
Answer: 131 µM

Question: And the IC50 at 40 min ([3]; human, recombinant CYP3A4, pH 7.4, probe OCA369 (3-(3-benzyloxo)phenyl-7-methoxycoumarin), 10 µM)?
Answer: > 50 µM

Question: And the IC50 [3]?
Answer: 314 µM

Question: And the “Recombinant CYP IC50 (µM) with 95% confidence intervals” value [4]?
Answer: Stimulation ^c

Question: What about the “Recombinant CYP IC50 (µM) with 95% confidence intervals” value ([4]; listed as verbascoside) of the same molecule?
Answer: did not inhibit; also recorded: weak ability to stimulate

Question: What about the IC50 [5] of the same molecule?
Answer: 24 µM

Question: And the “Microsomal IC50 (µM) with 95% Confidence Intervals” value [6]?
Answer: Stimulation ^c

Question: What about the “Microsomal IC50 (µM) with 95% Confidence Intervals” value ([6]; listed as verbascoside) of the same molecule?
Answer: weak ability to stimulate

Question: And the IC50 [7]?
Answer: 96 µM

Question: What about the IC50 [8] of the same molecule?
Answer: 2.5 ± 0.02 µM

Question: And the IC50 [9]?
Answer: 382 ± 4.15 µM

Question: And the EC50 [10]?
Answer: 1.28 µM
